Measurements: patent publication US10570152B2, “Antibacterial therapeutics and prophylactics” (VYOME BIOSCIENCES PVT. LTD., priority 2015, dated 2020)
≈ marks a conversion by molar mass, not a printed value.

Experiments:
Assay in all cases: MIC by micro broth dilution
Type in all cases: cell-based
S. aureus MTCC 6908 = conditions: for MIC: Staphylococcus aureus, MTCC6908, read-out: Minimum inhibitory concentration (MIC)
Protocol: (§1) MIC of DART molecules were determined by micro broth dilution as per CLSI guidelines. Bacterial strains were cultured in Brain Heart Infusion Agar (BHIA) at 37° C. for 24 h. For MIC determination, BHI broth (100 μl) was added to each of the wells of a 96 well plate. 100 μl of broth containing drug was added to the first well (1A to 1H) and thereafter serial (double) dilutions were carried out for up to 10 wells (column 1 to column 10 of the 96 well plate). Bacterial inoculum was prepared by adjusting the bacterial culture turbidity to 0.5 McFarland standard (approximately 1.5×10^8 cells/ml) and further diluted (100 times with sterile BHI broth). Diluted bacterial suspension (100 μl) was added to each well except sterility control wells (column 12 of 96 well plate). The plates were incubated at 37° C. for 24 h. The MIC of the test compound was measured after addition of Alamar blue dye.

A. baumannii ATCC 1906 = conditions: for MIC: Acinetobacter baumannii, ATCC1906, read-out: Minimum inhibitory concentration (MIC)
Protocol: as §1

E. coli MTCC 1687 = conditions: for MIC: Escherichia coli, MTCC1687, read-out: Minimum inhibitory concentration (MIC)
Protocol: as §1

[1] = system: S. epidermidis ATCC 35984; conditions: for MIC: Staphylococcus epidermidis, ATCC35984, read-out: Minimum inhibitory concentration (MIC)
Protocol: as §1

S. aureus ATCC 43300 = conditions: S. aureus ATCC 43300; for MIC: Staphylococcus aureus, ATCC43300, read-out: Minimum inhibitory concentration (MIC)
Protocol: as §1

E. coli BAA 196 = conditions: for MIC: Escherichia coli, BAA196, read-out: Minimum inhibitory concentration (MIC)
Protocol: as §1

E. aerogenes M2-1 = conditions: for MIC: Klebsiella aerogenes, M21, read-out: Minimum inhibitory concentration (MIC)
Protocol: as §1

S. aureus CCARM 3505 = conditions: for MIC: Staphylococcus aureus, CCARM3505, read-out: Minimum inhibitory concentration (MIC)
Protocol: as §1

E. aerogenes NCIM 5139 = conditions: for MIC: Klebsiella aerogenes, NCIM5139, read-out: Minimum inhibitory concentration (MIC)
Protocol: as §1

P. aeruginosa ATCC 27853 = conditions: for MIC: Pseudomonas aeruginosa, ATCC27853, read-out: Minimum inhibitory concentration (MIC)
Protocol: as §1

K. pneumonia ATCC 13883 = conditions: for activity in words: Klebsiella pneumonia (susceptible); for MIC: Klebsiella pneumoniae, ATCC13883, read-out: Minimum inhibitory concentration (MIC)
Protocol: as §1

E. faecium NCIM 5421 = conditions: for MIC: Enterococcus faecium, NCIM5421, read-out: Minimum inhibitory concentration (MIC)
Protocol: as §1

S. epidermidis S12-1 = conditions: for MIC: Staphylococcus epidermidis, S121, read-out: Minimum inhibitory concentration (MIC)
Protocol: as §1

A. baumannii CCARM 12020 = conditions: for MIC: Acinetobacter baumannii, CCARM12020, read-out: Minimum inhibitory concentration (MIC)
Protocol: as §1

A. baumannii CCARM 12001 = conditions: for MIC: Acinetobacter baumannii, CCARM12001, read-out: Minimum inhibitory concentration (MIC)
Protocol: as §1

P. aeruginosa CCARM 2161 = conditions: Pseudomonas aeruginosa, CCARM2161, read-out: Minimum inhibitory concentration (MIC)
Protocol: as §1

P. aeruginosa CCARM 2204 = conditions: Pseudomonas aeruginosa, CCARM2204, read-out: Minimum inhibitory concentration (MIC)
Protocol: as §1

Structure (SMILES) | MIC (S. aureus MTCC 6908) [µg/mL] | MIC (A. baumannii ATCC 1906) [µg/mL] | MIC (E. coli MTCC 1687) [µg/mL] | MIC [1] [µg/mL] | MIC (S. aureus ATCC 43300) [µg/mL] | MIC (E. coli BAA 196) [µg/mL] | MIC (E. aerogenes M2-1) [µg/mL] | MIC (S. aureus CCARM 3505) [µg/mL] | MIC (E. aerogenes NCIM 5139) [µg/mL] | MIC (P. aeruginosa ATCC 27853) [µg/mL] | activity in words (K. pneumonia ATCC 13883) | MIC (K. pneumonia ATCC 13883; K. pneumonia ATCC 13883) [µg/mL] | MIC (E. faecium NCIM 5421) [µg/mL] | MIC (S. epidermidis S12-1) [µg/mL] | MIC (A. baumannii CCARM 12020) [µg/mL] | MIC (A. baumannii CCARM 12001) [µg/mL] | MIC (P. aeruginosa CCARM 2161) [µg/mL] | MIC (P. aeruginosa CCARM 2204) [µg/mL] | further results
CC1Sc2c(C(=O)O)c(=O)c3cc(F)c(N4CCN(CC(=O)Nc5ncc([N+](=O)[O-])s5)CC4)cc3n21 (stereo not drawn) [Compound 6, 6-Fluoro-1-methyl-7-(4-(2-((5-nitrothiazol-2-yl)amino)-2-oxoethyl)piperazin-1-yl)-4-oxo-1H,4H-[1,3]-thiazeto[3,2-a]quinoline-3-carboxylic acid] | 0.1 (≈ 0.187 µM) | 8 (≈ 15 µM) | 1 (≈ 1.87 µM) | < 0.03 | < 0.13 | 16 (≈ 29.9 µM) | 4 (≈ 7.48 µM) | 4 (≈ 7.48 µM) | 4 (≈ 7.48 µM) | 8 (≈ 15 µM) | active | 0.25 (≈ 0.468 µM) | 0.25 (≈ 0.468 µM) | 4 (≈ 7.48 µM) |  |  |  |  | 
Cc1ncc([N+](=O)[O-])n1CC(O)CN1CCN(c2cc3c(cc2F)c(=O)c(C(=O)O)c2n3C(C)S2)CC1 (stereo not drawn) [Compound 1] | 1.5 (≈ 2.82 µM) | > 16 | 16 (≈ 30 µM) | 0.13 (≈ 0.244 µM) | 1 (≈ 1.88 µM) | 16 (≈ 30 µM) | > 16 | 32 (≈ 60.1 µM) | > 16 | > 16 |  |  | > 16 | > 64 | > 16 | > 16 | > 16 | > 16 | 
CC1Sc2c(C(=O)O)c(=O)c3cc(F)c(N4CCN(Cc5nc6ccc(N)cc6[nH]5)CC4)cc3n21 (stereo not drawn) [Compound 20, 7-(4-((6-Amino-1H-benzo[d]imidazol-2-yl)methyl)piperazin-1-yl)-6-fluoro-1-methyl-4-oxo-1H,4H-[1,3]thiazeto[3,2-a]quinoline-3-carboxylic acid] | 8 (≈ 16.2 µM) | 8 (≈ 16.2 µM) | 1 (≈ 2.02 µM) | 0.13 (≈ 0.263 µM) | 0.5 (≈ 1.01 µM) | > 16 | 4 (≈ 8.09 µM) | > 16 | 0.5 (≈ 1.01 µM) | 4 (≈ 8.09 µM) | active | 0.25 (≈ 0.506 µM) | 1 (≈ 2.02 µM) | > 16 |  |  |  |  | 
O=C(N[C@@H]1CCCCN(c2c(F)cc3c(=O)c(C(=O)O)cn(C4CC4)c3c2Cl)C1)c1ccc([N+](=O)[O-])o1 [Compound 16] |  |  |  |  |  |  |  |  |  |  | active |  |  |  |  |  |  |  | Minimum inhibitory concentration (MIC) (S. aureus MTCC 6908): 0.25 µg/mL (≈ 0.469 µM); Minimum inhibitory concentration (MIC) (A. baumannii ATCC 1906): .05 µg/mL (≈ 0.0938 µM); Minimum inhibitory concentration (MIC) (E. coli MTCC 1687): 4 µg/mL (≈ 7.51 µM); Minimum inhibitory concentration (MIC) [1]: <0.03 µg/mL; Minimum inhibitory concentration (MIC) (S. aureus ATCC 43300): <0.01 µg/mL; Minimum inhibitory concentration (MIC) (E. coli BAA 196): >16 µg/mL; Minimum inhibitory concentration (MIC) (E. aerogenes M2-1): 4 µg/mL (≈ 7.51 µM); Minimum inhibitory concentration (MIC) (S. aureus CCARM 3505): 0.5 µg/mL (≈ 0.938 µM); Minimum inhibitory concentration (MIC) (A. baumannii CCARM 12020): >16 µg/mL; Minimum inhibitory concentration (MIC) (E. aerogenes NCIM 5139): 2 µg/mL (≈ 3.75 µM); Minimum inhibitory concentration (MIC) (P. aeruginosa ATCC 27853): 2 µg/mL (≈ 3.75 µM); Minimum inhibitory concentration (MIC) (K. pneumonia ATCC 13883; K. pneumonia ATCC 13883): 0.25 µg/mL (≈ 0.469 µM); Minimum inhibitory concentration (MIC) (A. baumannii CCARM 12001): 16 µg/mL (≈ 30 µM); Minimum inhibitory concentration (MIC) (E. faecium NCIM 5421): 0.12 µg/mL (≈ 0.225 µM); Minimum inhibitory concentration (MIC) (S. epidermidis S12-1): 0.13 µg/mL (≈ 0.244 µM)
CC1Sc2c(C(=O)O)c(=O)c3cc(F)c(N4CCN(C(=O)c5ccccn5)CC4)cc3n21 (stereo not drawn) [Compound 31, 6-Fluoro-1-methyl-4-oxo-7-(4-picolinoylpiperazin-1-yl)-1H,4H-[1,3]thiazeto[3,2-a]quinoline-3-carboxylic acid] | 0.5 (≈ 1.1 µM) | 2 (≈ 4.4 µM) | 2 (≈ 4.4 µM) | 0.13 (≈ 0.286 µM) | 0.25 (≈ 0.55 µM) | 4 (≈ 8.8 µM) | 8 (≈ 17.6 µM) | 16 (≈ 35.2 µM) | 1 (≈ 2.2 µM) | 8 (≈ 17.6 µM) | active | 0.12 (≈ 0.264 µM) | 0.06 (≈ 0.132 µM) | 8 (≈ 17.6 µM) |  |  |  |  | 
CC1Sc2c(C(=O)O)c(=O)c3cc(F)c(N4CCN(Cc5nc6ccc([N+](=O)[O-])cc6[nH]5)CC4)cc3n21 (stereo not drawn) [Compound 18, 6-Fluoro-1-methyl-7-(4-((6-nitro-1H-benzo[d]imidazol-2-yl)methyl)piperazin-1-yl)-4-oxo-1H,4H-[1,3]thiazeto[3,2-a]quinoline-3-carboxylic acid] | 1 (≈ 1.91 µM) | 1 (≈ 1.91 µM) | > 4 | 0.25 (≈ 0.477 µM) | 1 (≈ 1.91 µM) | > 4 | > 16 | > 4 | 0.25 (≈ 0.477 µM) | > 16 | active | 0.12 (≈ 0.229 µM) | 0.5 (≈ 0.953 µM) | > 16 |  |  | > 16 | > 16 | 
CC1Sc2c(C(=O)O)c(=O)c3cc(F)c(N4CCN(Cc5nc6cc(Cl)c(Cl)cc6[nH]5)CC4)cc3n21 (stereo not drawn) [Compound 21, 7-(4-((5,6-Dichloro-1H-benzo[d]imidazol-2-yl)methyl)piperazin-1-yl)-6-fluoro-1-methyl-4-oxo-1H,4H-[1,3]thiazeto[3,2-a]quinoline-3-carboxylic acid] | 0.25 (≈ 0.456 µM) | 16 (≈ 29.2 µM) | 8 (≈ 14.6 µM) | < 0.03 | 0.13 (≈ 0.237 µM) | > 16 | 16 (≈ 29.2 µM) | > 16 | 16 (≈ 29.2 µM) | 16 (≈ 29.2 µM) | active | 0.5 (≈ 0.912 µM) | 0.25 (≈ 0.456 µM) | > 16 | > 16 | > 16 | > 16 | > 16 | 
CC1Sc2c(C(=O)O)c(=O)c3cc(F)c(N4CCN(C(=O)c5cccc(Br)n5)CC4)cc3n21 (stereo not drawn) [Compound 32, 7-(4-(6-Bromopicolinoyl)piperazin-1-yl)-6-fluoro-1-methyl-4-oxo-1H,4H-[1,3]thiazeto[3,2-a]-quinoline-3-carboxylic acid] | 0.5 (≈ 0.937 µM) | 2 (≈ 3.75 µM) | 4 (≈ 7.5 µM) | 0.13 (≈ 0.244 µM) | 0.06 (≈ 0.112 µM) | 8 (≈ 15 µM) | 16 (≈ 30 µM) | 8 (≈ 15 µM) | 16 (≈ 30 µM) | 16 (≈ 30 µM) | active | 0.5 (≈ 0.937 µM) |  | 4 (≈ 7.5 µM) | > 16 | > 16 | > 16 | > 16 | 
CC1Sc2c(C(=O)O)c(=O)c3cc(F)c(N4CCN(C(=O)NC(=N)N)CC4)cc3n21 (stereo not drawn) [Compound 44, 7-(4-(Carbamimidoylcarbamoyl)piperazin-1-yl)-6-fluoro-1-methyl-4-oxo-1H,4H-[1,3]thiazeto[3,2-a]quinoline-3-carboxylic acid] | 8 (≈ 18.4 µM) | 16 (≈ 36.8 µM) | 0.5 (≈ 1.15 µM) | 4 (≈ 9.21 µM) | 4 (≈ 9.21 µM) | > 16 | 1 (≈ 2.3 µM) | > 16 | 1 (≈ 2.3 µM) | 4 (≈ 9.21 µM) |  | 0.12 (≈ 0.276 µM) | > 16 | > 16 | > 16 | > 16 |  | > 16 | 
